Data set [1] concerns the target T1, S-adenosylmethionine synthase isoform type-2 (Homo sapiens, UniProt P31153). Description: Inhibition of recombinant human MAT2A expressed in baculovirus infected Sf9 cells assessed as S-adenosyl methionine production using L-methionine as substrate incubated for 60 mins followed by substrate addition and measured after 60 mins relative to control. Further details: concentration or dose not given beside the values.
Target sequence in this assay (P31153 whole entry, looked up, canonical isoform): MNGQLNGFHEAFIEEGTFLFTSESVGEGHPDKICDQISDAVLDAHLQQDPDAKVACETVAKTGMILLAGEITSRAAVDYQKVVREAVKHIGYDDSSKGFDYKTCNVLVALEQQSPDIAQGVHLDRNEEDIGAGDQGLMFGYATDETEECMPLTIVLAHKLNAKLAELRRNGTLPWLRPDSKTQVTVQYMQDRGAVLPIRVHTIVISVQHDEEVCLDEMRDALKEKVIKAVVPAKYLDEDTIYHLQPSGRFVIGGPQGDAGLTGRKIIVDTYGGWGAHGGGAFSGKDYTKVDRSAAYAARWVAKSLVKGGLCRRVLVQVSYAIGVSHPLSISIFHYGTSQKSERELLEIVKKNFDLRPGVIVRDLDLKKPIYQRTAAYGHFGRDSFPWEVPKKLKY

Data set [2] has as its target T1, S-adenosylmethionine synthase isoform type-2. Description: Inhibition of recombinant human MAT2A expressed in baculovirus infected Sf9 cells assessed as S-adenosyl methionine production using L-methionine as substrate incubated for 60 mins followed by substrate addition and measured after 60 mins.
Target sequence in this assay (P31153 whole entry, canonical isoform): as the sequence (P31153 whole entry, looked up, canonical isoform) above
Data set [3] in a line: Stability in human liver microsomes assessed as extraction ratio. Format: ADME, Microsome. Particulars: read-out: ERH. For orientation: Liver microsomes are a subcellular fraction often used to study metabolism.
A further data set in a line: cells. Particulars: Homo sapiens, HCT-116, 72 h.
The next data set has as its system HCT-116. The data set can be described thus: cells. The conditions noted are these: Homo sapiens, HCT-116, 96 h.

Active and inactive are the calls of the source. The rule behind the calls is not given here.

This is an account of results in ChEMBL document CHEMBL4834423, “Discovery of AG-270, a First-in-Class Oral MAT2A Inhibitor for the Treatment of Tumors with Homozygous MTAP Deletion” (J Med Chem, 2021).

As to `CCc1cc(=O)n2nc(-c3ccccc3)c(-c3ccccc3)c2[nH]1`, the inhibition (as a rule, the drop in the measured response relative to a control, in per cent) in data set [1] came to 54%. For the same compound, in data set [2] (read-out: IC50), the IC50 (usually the concentration that gives 50% inhibition) stood at 3660 nM.

On to `Cc1[nH]c2c(N3CCCCC3)c(-c3ccccc3)nn2c(=O)c1-c1ccc2[nH]cnc2c1`, for which the inhibition in data set [1] was found to be 92%. Besides, the IC50 in data set [2] (read-out: IC50) is 45 nM. For the same compound, the hepatic extraction ratio in data set [3] was found to be 0.79.

For the compound `Cc1[nH]c2c(N3CCCCC3)c(-c3ccccc3)nn2c(=O)c1-c1ccc2ncccc2c1`, the inhibition in data set [1] was 95%. Besides, the IC50 in data set [2] (read-out: IC50) is 52 nM. The hepatic extraction ratio in data set [3] was 0.88.

Turning to `Cc1cc(=O)n2nc(C3=CCCCC3)c(-c3ccccc3)c2[nH]1`, the IC50 entry in data set [2] (sf9) is listed as “Not Active”.

For `Nc1cc(=O)n2nc(-c3ccccc3)c(-c3ccccc3)c2[nH]1`, in data set [2] (sf9), the IC50 entry is recorded as “Not Active”.

Take `COc1ccc(-c2c(Nc3ccon3)[nH]c3c(C4=CCCCC4)c(-c4ccccc4)nn3c2=O)cc1`: the IC50 in “cells” stood at 65 nM; with HCT-116, 812 nM; in data set [2] (read-out: IC50), 10 nM. Further, the inhibition in data set [1] was 94%. Besides, the hepatic extraction ratio in data set [3] was found to be 0.11.

As for `Cc1[nH]c2c(N3CCCCC3)c(-c3ccccc3)nn2c(=O)c1-c1cscn1`, the inhibition in data set [1] was 85%. In data set [2] (read-out: IC50), the IC50 amounted to 158 nM.

As to `Cc1cc(=O)n2nc(-c3cccc(O)c3)c(-c3ccccc3)c2[nH]1`, the IC50 was 7650 nM in “cells”, 75000 nM with HCT-116 and 12200 nM in data set [2] (read-out: IC50). In data set [1], the inhibition turned out to be 92%.

Take `Cc1cc(=O)n2nc(-c3cn[nH]c3)c(-c3ccccc3)c2[nH]1`: in data set [1], the inhibition entry is “inactive”. In data set [2] (read-out: IC50), the IC50 was 50100 nM.

`CCOC(=O)c1nnc(Nc2[nH]c3c(-c4ccccc4)c(-c4ccccc4)nn3c(=O)c2-c2ccc3ncccc3c2)o1`: the inhibition in data set [1] is 88%. Also, the half-maximal inhibitory concentration (IC50) in data set [2] (read-out: IC50) stood at 4 nM. Also, the hepatic extraction ratio in data set [3] came to 0.7.

Take `COc1ccc(-c2c(Nc3cc[nH]n3)[nH]c3c(C4=CCCCC4)c(-c4ccccc4)nn3c2=O)cc1`: the IC50 was found to be 21 nM in the data set “cells”, 80 nM in the data set with HCT-116 and 5 nM in data set [2] (read-out: IC50). The inhibition in data set [1] turned out to be 96%. In addition, the hepatic extraction ratio in data set [3] amounted to 0.56.

Regarding `Cc1[nH]c2c(C3=CCCC3)c(-c3ccccc3)nn2c(=O)c1-c1ccc2ncccc2c1`, in data set [1], the inhibition came to 96%. For the same compound, the IC50 in data set [2] (read-out: IC50) was found to be 159 nM.

`Cc1[nH]c2c(C3CCCCC3)c(-c3ccccc3)nn2c(=O)c1-c1ccc2ncccc2c1`: the inhibition in data set [1] is 93%. Further, the IC50 in data set [2] (read-out: IC50) was determined as 66 nM. Also, the hepatic extraction ratio in data set [3] worked out at 0.66.

As to `COc1ccc(-c2c(Nc3cnccn3)[nH]c3c(C4=CCCCC4)c(-c4ccccc4)nn3c2=O)cc1`, the IC50 was 16 nM in “cells”, 409 nM in the data set with HCT-116 and 28 nM in data set [2] (read-out: IC50). Besides, in data set [1], the inhibition was 95%.

As for `Cc1[nH]c2c(C3=CCCCC3)c(-c3ccccc3)nn2c(=O)c1-c1ccc2ncccc2c1`, the inhibition in data set [1] was 96%. Moreover, the IC50 in data set [2] (read-out: IC50) was 25 nM.

In the case of `Cc1[nH]c2c(N3CCCCC3)c(-c3ccccc3)nn2c(=O)c1-c1cn[nH]c1`, the inhibition in data set [1] was found to be 95%. Further, the IC50 in data set [2] (read-out: IC50) was 1310 nM.

Regarding `CC(=O)Nc1cc(=O)n2nc(-c3ccccc3)c(-c3ccccc3)c2[nH]1`, the inhibition in data set [1] was 85%. For the same compound, the IC50 in data set [2] (read-out: IC50) was found to be 4110 nM.

Turning to `Cc1cc(=O)n2nc(-c3ccccc3)c(-c3ccccn3)c2[nH]1`, the inhibition in data set [1] is 79%. The IC50 in data set [2] (read-out: IC50) was determined as 7100 nM.

For the compound `Cc1cc(=O)n2nc(-c3ccccc3)c(C3=CCCC3)c2[nH]1`, the IC50 stood at 588 nM in “cells”, 82000 nM with HCT-116 and 1140 nM in data set [2] (read-out: IC50). Moreover, the inhibition in data set [1] came out at 84%.

For `Cc1cc(=O)n2nc(-c3ccccc3)c(-c3ccco3)c2[nH]1`, the inhibition in data set [1] was determined as 90%. For the same compound, the IC50 in data set [2] (read-out: IC50) came to 3660 nM.

As to `Cc1cc(=O)n2nc(-c3ccco3)c(-c3ccccc3)c2[nH]1`, in data set [1], the inhibition came out at 65%. For the same compound, in data set [2] (read-out: IC50), the IC50 was determined as 1500 nM.

Regarding `Cc1[nH]c2c(N3CCCCC3)c(-c3ccccc3)nn2c(=O)c1-c1ccc2[nH]c(N)nc2c1`, the inhibition in data set [1] was 94%. Also, in data set [2] (read-out: IC50), the IC50 came out at 83 nM. Moreover, in data set [3], the hepatic extraction ratio turned out to be 0.75.

`O=c1cc(Nc2ccccc2)[nH]c2c(-c3ccccc3)c(-c3ccccc3)nn12`: the inhibition in data set [1] came to 70%. Moreover, the IC50 in data set [2] (read-out: IC50) worked out at 16600 nM.

For `Cc1cc(=O)n2nc(-c3cccc(F)c3)c(-c3ccccc3)c2[nH]1`, in data set [1], the inhibition was 76%. Moreover, the IC50 in data set [2] (read-out: IC50) turned out to be 1900 nM.

`Cc1[nH]c2c(N3CCCCC3)c(-c3ccccc3)nn2c(=O)c1-c1ccncc1`: the inhibition in data set [1] amounted to 91%. For the same compound, in data set [2] (read-out: IC50), the IC50 is 160 nM.

With `O=c1c(-c2ccc3ncccc3c2)c(Nc2cc[nH]n2)[nH]c2c(-c3ccccc3)c(-c3ccccc3)nn12`, the results for the IC50 (in the data set with HCT-116; in data set [2] (read-out: IC50)) were 522 nM and 7 nM, respectively. Moreover, the inhibition in data set [1] was found to be 94%. Moreover, the hepatic extraction ratio in data set [3] is 0.49.

On to `Cc1[nH]c2c(N3CCCCC3)c(-c3ccccc3)nn2c(=O)c1-c1ccc2c(c1)OCO2`, for which the inhibition in data set [1] came out at 93%. Also, the IC50 in data set [2] (read-out: IC50) came to 8 nM. The hepatic extraction ratio in data set [3] amounted to 0.83.

`O=c1c(-c2ccc3ncccc3c2)c(Nc2cc[nH]n2)[nH]c2c(C3=CCCCC3)c(-c3ccccc3)nn12`: the IC50 in “cells” was found to be 18 nM; with HCT-116 it was 73 nM; in data set [2] (read-out: IC50), 4 nM. Further, the inhibition in data set [1] stood at 92%. In addition, the hepatic extraction ratio in data set [3] is 0.55.

Consider `Cc1[nH]c2c(-c3ccccc3)c(-c3ccccc3)nn2c(=O)c1-c1ccc(O)cc1`, for which the inhibition in data set [1] amounted to 93%. For the same compound, the half-maximal inhibitory concentration (IC50) in data set [2] (read-out: IC50) was determined as 33 nM. In data set [3], the hepatic extraction ratio worked out at 0.54.

Turning to `Cc1cc(=O)n2nc(-c3nccs3)c(-c3ccccc3)c2[nH]1`, the inhibition in data set [1] was found to be 63%. The IC50 in data set [2] (read-out: IC50) was found to be 78800 nM.

For the compound `Cc1cc(=O)n2nc(-c3ccccc3)c(C3CCCCC3)c2[nH]1`, the inhibition in data set [1] is 59%. The IC50 in data set [2] (read-out: IC50) was 660 nM.

In the case of `O=c1cc(Nc2cc[nH]n2)[nH]c2c(-c3ccccc3)c(-c3ccccc3)nn12`, in data set [1], the inhibition stood at 88%. Besides, in data set [2] (read-out: IC50), the IC50 was determined as 270 nM.

Regarding `COc1ccc(-c2c(Nc3ccccn3)[nH]c3c(-c4ccccc4)c(-c4ccccc4)nn3c2=O)cc1`, the results for the IC50 (in “cells”; in the data set with HCT-116; in data set [2] (read-out: IC50)) were 25 nM, 793 nM and 7 nM, respectively. Besides, the inhibition in data set [1] was 85%. Moreover, the hepatic extraction ratio in data set [3] was 0.13.

Consider `Cc1[nH]c2c(N3CCCCC3)c(-c3ccccc3)nn2c(=O)c1-c1ccccc1`, for which the inhibition in data set [1] was 93%. Further, in data set [2] (read-out: IC50), the IC50 was determined as 150 nM.

Consider `CCOC(=O)n1ccc(Nc2[nH]c3c(-c4ccccc4)c(-c4ccccc4)nn3c(=O)c2-c2ccc(OC)cc2)n1`, for which the values for the IC50 (in “cells”; with HCT-116; in data set [2] (read-out: IC50)) were 15 nM, 430 nM and 11 nM, respectively. Also, the inhibition in data set [1] came to 93%. Besides, the hepatic extraction ratio in data set [3] is 0.51.

As for `O=c1c(-c2ccc(O)cc2)c(Nc2cc[nH]n2)[nH]c2c(-c3ccccc3)c(-c3ccccc3)nn12`, the IC50 in the data set on HCT-116 was found to be 527 nM; in data set [2] (read-out: IC50), 7 nM. Further, the inhibition in data set [1] was 93%. Besides, the hepatic extraction ratio in data set [3] worked out at 0.26.

On to `Cc1cc(=O)n2nc(-c3ccccc3)c(C3CCCC3)c2[nH]1`, for which the inhibition in data set [1] is 88%. For the same compound, the IC50 in data set [2] (read-out: IC50) is 680 nM.
